Measured values taken from patent US8188150B2, “Use of beta-aminoalcohols in the treatment of inflammatory disorders and pain” (Biocopea Limited, priority 2006, dated 2012).

Tests used:
TNFα = assay: LPS Mouse Assay, serum TNFα by ELISA; type: in vivo, Balb C ByJ mice; details: i.p. or oral, 30 minutes before 1 mg/kg LPS i.p.; serum 2 hours after LPS
Experimental: (§1) 7 week-old Balb C ByJ mice (24-28 g) were administered, either by i.p. (5 ml/kg) or oral (10 ml/kg) administration, with vehicle or test article. 30 minutes later these animals were challenged with an intraperitoneal injection of 1 mg/kg LPS. 2 hours after LPS challenge blood samples were collected under light isoflurane anaesthesia into normal tubes by retro-orbital puncture. Samples were allowed to clot at room temperature and then spun at 6000 g for 3 min at 4° C. Serum was stored at −20° C. until use. Serum TNFα and IL-10 levels were analysed in duplicate by ELISA technique.

IL-10 = assay: LPS Mouse Assay, serum IL-10 by ELISA; type: in vivo, Balb C ByJ mice; details: i.p. or oral, 30 minutes before 1 mg/kg LPS i.p.; serum 2 hours after LPS
Experimental: as §1

[1] = tested on: inflammation induced by carrageenan paw injection; assay: Carrageenan Paw Assay; type: in vivo, male Wistar rats; details: oral gavage, half an hour before 2% carrageenan; paw measured at 1-5 hours
Experimental: Fasted (18 hour) male Wistar rats (105-130 g) were weighed and a basal mercury plethysmometer reading was taken of the right hind paw by submerging the paw in the mercury up to the tibiotarsal joint. Subsequently, vehicles, reference items and test articles were administered by oral gavage (10 ml/kg). Half an hour after treatment 0.1 ml of 2% carrageenan in 0.9% saline was injected into the subplanatar area of the right hind paw. The right paw was measured again with the plethysmometer at 1, 2, 3, 4 and 5 hours after carrageenan administration.

CC(C)(CO)NCC(=O)c1cc(Cl)c(N)c(Cl)c1 [Compound (3), 1-(4-Amino-3,5-dichlorophenyl)-2-(1-hydroxy-2-methylpropan-2-ylamino)ethanone]
effect on serum TNFα (TNFα): strong inhibitory effects
effect on serum IL-10 (IL-10): potentiating effects
effect on inflammation induced by carrageenan paw injection [1]: dose-dependant inhibitory effect
